Converted amounts (≈) assume the structure as drawn.
Columns and labels:
Format in all cases: physicochemical
[1] = Solution osmolality of roxithromycin citrate solutions; conditions: 25° C.
Method: (§1) The solutions were syringe-filtered and analyzed by HPLC for [roxithromycin]. Roxithromycin Potency was assayed by a reverse-phase HPLC method that meets the requirements of the European Pharmacopeia (EP) Monograph for roxithromycin. Solution pH values were determined per USP <791> and solution osmolality values were determined per USP <785>. Aqueous solubility limits were determined for roxithromycin as a function of buffer type (phosphate versus citrate), buffer concentration, pH, and added co-solvent (ethanol).

[2] = Aqueous solubility of roxithromycin (pH, buffer, ethanol); conditions: 25 °C, thermodynamic from solid
Method: as §1

[3] = Stability of formoterol fumarate and roxithromycin co-formulated in oral solution; conditions: co-formulated 0.005 mg/mL formoterol fumarate + 2.0 mg/mL roxithromycin, pH 6.0, 20 mM citrate, 4.5% mannitol, 0.1% potassium sorbate
Method: Roxithromycin Potency was assayed by a reverse-phase HPLC method that meets the requirements of the European Pharmacopeia (EP) Monograph for roxithromycin.

Solution Osmolaltiy ([1]; 20 mM citrate, pH 4): 43 mOsm/kG | Solution Osmolaltiy ([1]; 20 mM citrate, pH 5): 47 mOsm/kG | Solution Osmolaltiy ([1]; 20 mM citrate, pH 6): 57 mOsm/kG | Solution Osmolaltiy ([1]; 20 mM citrate, pH 7): 60 mOsm/kG | Solution Osmolaltiy ([1]; 50 mM citrate, pH 4): 110 mOsm/kG | Solution Osmolaltiy ([1]; 50 mM citrate, pH 5): 124 mOsm/kG | Solution Osmolaltiy ([1]; 50 mM citrate, pH 6): 139 mOsm/kG | Solution Osmolaltiy ([1]; 50 mM citrate, pH 7): 138 mOsm/kG | Solution Osmolaltiy ([1]; 100 mM citrate, pH 4): 203 mOsm/kG | Solution Osmolaltiy ([1]; 100 mM citrate, pH 5): 243 mOsm/kG | Solution Osmolaltiy ([1]; 100 mM citrate, pH 6): 260 mOsm/kG | Solution Osmolaltiy ([1]; 100 mM citrate, pH 7): 271 mOsm/kG | Solution Osmolaltiy ([1]; 200 mM citrate, pH 4): 366 mOsm/kG | Solution Osmolaltiy ([1]; 200 mM citrate, pH 5): 462 mOsm/kG | Solution Osmolaltiy ([1]; 200 mM citrate, pH 6): 521 mOsm/kG | Solution Osmolaltiy ([1]; 200 mM citrate, pH 7): 532 mOsm/kG | solubility at 24 h ([2]; citrate buffer, pH 4, aqueous buffer, 20 mM citrate, pH 4): 4130 µg/mL (≈ 4.93 mM) | solubility at 24 h ([2]; citrate buffer, pH 4, aqueous buffer, 50 mM citrate, pH 4): 4610 µg/mL (≈ 5.51 mM) | solubility at 24 h ([2]; citrate buffer, pH 4, aqueous buffer, 100 mM citrate, pH 4): 1890 µg/mL (≈ 2.26 mM) | solubility at 24 h ([2]; citrate buffer, pH 4, aqueous buffer, 200 mM citrate, pH 4): 2740 µg/mL (≈ 3.27 mM) | solubility at 24 h ([2]; citrate buffer, pH 5, aqueous buffer, 20 mM citrate, pH 5): 3540 µg/mL (≈ 4.23 mM) | solubility at 24 h ([2]; citrate buffer, pH 5, aqueous buffer, 50 mM citrate, pH 5): 3570 µg/mL (≈ 4.26 mM) | solubility at 24 h ([2]; citrate buffer, pH 5, aqueous buffer, 100 mM citrate, pH 5): 2770 µg/mL (≈ 3.31 mM) | solubility at 24 h ([2]; citrate buffer, pH 5, aqueous buffer, 200 mM citrate, pH 5): 1900 µg/mL (≈ 2.27 mM) | solubility at 24 h ([2]; citrate buffer, pH 6, aqueous buffer, 20 mM citrate, pH 6): 2450 µg/mL (≈ 2.93 mM) | solubility at 24 h ([2]; citrate buffer, pH 6, aqueous buffer, 50 mM citrate, pH 6): 2760 µg/mL (≈ 3.3 mM) | solubility at 24 h ([2]; citrate buffer, pH 6, aqueous buffer, 100 mM citrate, pH 6): 2300 µg/mL (≈ 2.75 mM) | solubility at 24 h ([2]; citrate buffer, pH 6, aqueous buffer, 200 mM citrate, pH 6): 1720 µg/mL (≈ 2.05 mM) | solubility at 24 h ([2]; citrate buffer, pH 7, aqueous buffer, 20 mM citrate, pH 7): 500 µg/mL (≈ 0.597 mM) | solubility at 24 h ([2]; citrate buffer, pH 7, aqueous buffer, 50 mM citrate, pH 7): 980 µg/mL (≈ 1.17 mM) | solubility at 24 h ([2]; citrate buffer, pH 7, aqueous buffer, 100 mM citrate, pH 7): 1230 µg/mL (≈ 1.47 mM) | solubility at 24 h ([2]; citrate buffer, pH 7, aqueous buffer, 200 mM citrate, pH 7): 1250 µg/mL (≈ 1.49 mM) | solubility at 24 h ([2]; phosphate buffer with ethanol co-solvent, pH 5, aqueous with cosolvent or surfactant or cyclodextrin, pH 5, 10 mM phosphate, 5% ethanol): 3500 µg/mL (≈ 4.18 mM) | solubility at 24 h ([2]; phosphate buffer with ethanol co-solvent, pH 5, aqueous with cosolvent or surfactant or cyclodextrin, pH 5, 10 mM phosphate, 10% ethanol): 3800 µg/mL (≈ 4.54 mM) | solubility at 24 h ([2]; phosphate buffer with ethanol co-solvent, pH 5, aqueous with cosolvent or surfactant or cyclodextrin, pH 5, 20 mM phosphate, 5% ethanol): 5500 µg/mL (≈ 6.57 mM) | solubility at 24 h ([2]; phosphate buffer with ethanol co-solvent, pH 5, aqueous with cosolvent or surfactant or cyclodextrin, pH 5, 20 mM phosphate, 10% ethanol): 6000 µg/mL (≈ 7.17 mM) | solubility at 24 h ([2]; phosphate buffer with ethanol co-solvent, pH 5, aqueous with cosolvent or surfactant or cyclodextrin, pH 5, 50 mM phosphate, 5% ethanol): 8300 µg/mL (≈ 9.92 mM) | solubility at 24 h ([2]; phosphate buffer with ethanol co-solvent, pH 5, aqueous with cosolvent or surfactant or cyclodextrin, pH 5, 50 mM phosphate, 10% ethanol): 9200 µg/mL (≈ 11 mM) | solubility at 24 h ([2]; phosphate buffer with ethanol co-solvent, pH 6, aqueous with cosolvent or surfactant or cyclodextrin, pH 6, 10 mM phosphate, 5% ethanol): 4100 µg/mL (≈ 4.9 mM) | solubility at 24 h ([2]; phosphate buffer with ethanol co-solvent, pH 6, aqueous with cosolvent or surfactant or cyclodextrin, pH 6, 10 mM phosphate, 10% ethanol): 3900 µg/mL (≈ 4.66 mM) | solubility at 24 h ([2]; phosphate buffer with ethanol co-solvent, pH 6, aqueous with cosolvent or surfactant or cyclodextrin, pH 6, 20 mM phosphate, 5% ethanol): 4600 µg/mL (≈ 5.5 mM) | solubility at 24 h ([2]; phosphate buffer with ethanol co-solvent, pH 6, aqueous with cosolvent or surfactant or cyclodextrin, pH 6, 20 mM phosphate, 10% ethanol): 5000 µg/mL (≈ 5.97 mM) | solubility at 24 h ([2]; phosphate buffer with ethanol co-solvent, pH 6, aqueous with cosolvent or surfactant or cyclodextrin, pH 6, 50 mM phosphate, 5% ethanol): 8100 µg/mL (≈ 9.68 mM) | solubility at 24 h ([2]; phosphate buffer with ethanol co-solvent, pH 6, aqueous with cosolvent or surfactant or cyclodextrin, pH 6, 50 mM phosphate, 10% ethanol): 9300 µg/mL (≈ 11.1 mM) | solubility at 24 h ([2]; phosphate buffer with ethanol co-solvent, pH 7, aqueous with cosolvent or surfactant or cyclodextrin, pH 7, 10 mM phosphate, 5% ethanol): 1800 µg/mL (≈ 2.15 mM) | solubility at 24 h ([2]; phosphate buffer with ethanol co-solvent, pH 7, aqueous with cosolvent or surfactant or cyclodextrin, pH 7, 10 mM phosphate, 10% ethanol): 1700 µg/mL (≈ 2.03 mM) | solubility at 24 h ([2]; phosphate buffer with ethanol co-solvent, pH 7, aqueous with cosolvent or surfactant or cyclodextrin, pH 7, 20 mM phosphate, 5% ethanol): 1700 µg/mL (≈ 2.03 mM) | solubility at 24 h ([2]; phosphate buffer with ethanol co-solvent, pH 7, aqueous with cosolvent or surfactant or cyclodextrin, pH 7, 20 mM phosphate, 10% ethanol): 2100 µg/mL (≈ 2.51 mM) | solubility at 24 h ([2]; phosphate buffer with ethanol co-solvent, pH 7, aqueous with cosolvent or surfactant or cyclodextrin, pH 7, 50 mM phosphate, 5% ethanol): 2300 µg/mL (≈ 2.75 mM) | solubility at 24 h ([2]; phosphate buffer with ethanol co-solvent, pH 7, aqueous with cosolvent or surfactant or cyclodextrin, pH 7, 50 mM phosphate, 10% ethanol): 3100 µg/mL (≈ 3.7 mM) | solubility at 24 h ([2]; phosphate buffer, pH 5, aqueous buffer, pH 5, 10 mM phosphate, 0% ethanol): 3200 µg/mL (≈ 3.82 mM) | solubility at 24 h ([2]; phosphate buffer, pH 5, aqueous buffer, pH 5, 20 mM phosphate, 0% ethanol): 5200 µg/mL (≈ 6.21 mM) | solubility at 24 h ([2]; phosphate buffer, pH 5, aqueous buffer, pH 5, 50 mM phosphate, 0% ethanol): 7200 µg/mL (≈ 8.6 mM) | solubility at 24 h ([2]; phosphate buffer, pH 6, aqueous buffer, pH 6, 10 mM phosphate, 0% ethanol): 2800 µg/mL (≈ 3.35 mM) | solubility at 24 h ([2]; phosphate buffer, pH 6, aqueous buffer, pH 6, 20 mM phosphate, 0% ethanol): 4200 µg/mL (≈ 5.02 mM) | solubility at 24 h ([2]; phosphate buffer, pH 6, aqueous buffer, pH 6, 50 mM phosphate, 0% ethanol): 6700 µg/mL (≈ 8 mM) | solubility at 24 h ([2]; phosphate buffer, pH 7, aqueous buffer, pH 7, 10 mM phosphate, 0% ethanol): 1400 µg/mL (≈ 1.67 mM) | solubility at 24 h ([2]; phosphate buffer, pH 7, aqueous buffer, pH 7, 20 mM phosphate, 0% ethanol): 1300 µg/mL (≈ 1.55 mM) | solubility at 24 h ([2]; phosphate buffer, pH 7, aqueous buffer, pH 7, 50 mM phosphate, 0% ethanol): 2000 µg/mL (≈ 2.39 mM) | Roxithromycin Potency ([3]; week 0, 5 ° C.): 1920 µg/mL | Roxithromycin Potency ([3]; week 0, 25 ° C.): 1920 µg/mL | Roxithromycin Potency ([3]; week 0, 40 ° C.): 1920 µg/mL | Roxithromycin Potency ([3]; week 2, 25 ° C.): 1740 µg/mL | Roxithromycin Potency ([3]; week 2, 40 ° C.): 1610 µg/mL | Roxithromycin Potency ([3]; week 4, 5 ° C.): 1920 µg/mL | Roxithromycin Potency ([3]; week 4, 25 ° C.): 1710 µg/mL | Roxithromycin Potency ([3]; week 4, 40 ° C.): 1470 µg/mL
Compound: CC[C@H]1OC(=O)[C@H](C)[C@@H](O[C@H]2C[C@@](C)(OC)[C@@H](O)[C@H](C)O2)[C@H](C)[C@@H](O[C@@H]2O[C@H](C)C[C@H](N(C)C)[C@H]2O)[C@](C)(O)C[C@@H](C)/C(=N\OCOCCOC)[C@H](C)[C@@H](O)[C@]1(C)O [roxithromycin]
